Test results from patent publication EP0559845B1, “Use of compounds in preventing endotoxin shock” (priority 1991, dated 1992).

Key:
[1] = test system: LPS-induced GTPase activity in membranes isolated from RAW 264.7 cells; assay: GTPase assay: effect of compounds on LPS-stimulated GTPase activity in macrophage membranes (release of 32Pi from γ-32P-GTP); assay type: biochemical
Description: We sought to directly evaluate the influence of LPS on possible G-protein function by examining agonist-enhanced GTPase activity, which is a hallmark of G-protein action. Moreover, because macrophages are one of the key cell types in the release of toxic mediators following an LPS challenge, we first assessed the capacity of LPS to influence GTPase activity in membranes isolated from RAW 264.7 cells, which is a highly LPS-responsive macrophage cell line. In these studies, GTPase activity was measured using a standard assay. The activity was determined using 2 µM γ-^32P-GTP in the presence of 0.1 mM ATP and 0.2 mM of the non-hydrolyzable ATP analog, AMPPNP, in order to minimize nonspecific nucleotidase activity in the membrane preparations.
The reaction is initiated by the addition of the γ-^32P-GTP and the mixture incubated at 30-37°C for 15 to 30 minutes. The reaction is terminated by the addition of 500µl of 5% trichloroacetic acid and 500µl of 0.1gm/ml acid-activated charcoal in 5% trichloroacetic acid. The samples are centrifuged at 14,000xg for 10 minutes, and a 550µl aliquot of the supernatant is removed for scintillation counting. The supernatant will contain the released ^32Pi. The extent of GTPase inhibition is measured by the decrease in the amount of ^32Pi released from γ-^32P-GTP. Appropriate controls include mixtures with one of the following omitted: (i) test compound, (ii) endotoxin, and (iii) ATP, ADP or AMPPNP.
The membranes are resuspended in 20 mM HEPES (pH 7.4), 1 mM dithiothreitol, 1 mM EDTA and 10 µg leupeptin/ml. Aliquots are stored at -70°C until assayed.

[2] = test system: TNFα production by RAW264.7 macrophages; assay: LPS-mediated TNF production by macrophages, measured by cell viability assay on actinomycin D-sensitized L929 cells; assay type: cell-based; details: RAW264.7 cells treated with 2-MeSATP (0-5µM), LPS and ATP
Procedure: Moreover, 2-MeSATP decreased LPS-mediated TNFα production by RAW264.7 macrophages. Production of TNF by the macrophage cells was measured by a "cell viability" assay. This is a standard assay described in Birkland, et al., Adv. Exp. Med. Biol. 256: 399-402 (1990). In brief, TNF in solution will kill actinomycin D-sensitized L929 cells, which can be measured by a loss of MTT dye reduction. The supernatent was removed from RAW264.7 cells treated with 2-MeSATP, LPS and ATP. The greater the amount of 2-MeSATP added (0-5µM), the less TNF was produced by the macrophage cells.

## 2-methylthio-ATP [2-MeSATP]
[1]
  inhibition of LPS-stimulated GTPase activity: blocks
  stimulation (potentiation) of LPS-stimulated GTPase activity: no stimulatory effect
[1]; 2-MeSATP 0-100µM
  antagonism of the stimulatory effects of ATP on LPS-inducible GTPase activity: did antagonize
[1]; dose-response studies, rank order
  relative abilities of purines to stimulate LPS-enhanced GTPase: ATP> ATPγS> ADP> AMPPNP>> β,γ methylene ATP> 2-MeSATP
[2]
  LPS-mediated TNFα production: decreased
[2]; listed as 2-methylthio-ATP
  LPS-mediated TNFα production: blocks
